Data published in US20090305321A1, “Assays for Allosteric Modulators of G-Protein Coupled Receptors (GPCRs)” (ASTRAZENECA AB, priority 2005, published 2009).

Key:
[1] = target: T1, GST-CXCR2 fusion protein (human CXCR2 residues G318 to L360) (Homo sapiens, UniProt P25025); assay: [3H]Compound A radioligand binding to GST-CXCR2 C terminal tail; conditions: 20 nM [3H]Compound A, FIG. 21, average of three experiments
T1 construct: made in house; host or cells: E. coli
Protocol: An expression construct which encodes for S. Japonicum glutathione-S-transferase (GST) fused to the last 43 amino acids of human CXCR2 (residues G318 to L360) was generated by standard molecular biological techniques.
The protein was expressed in E. coli and the resulting fusion protein was purified from the cell extract via chromatography using a 5 ml GSTrap column (Amersham) which binds GST containing proteins, and eluted using 10 mM reduced glutathione in the elution buffer. At the same time GST without a CXCR2 C-terminal tail was also expressed and purified as a control. Both proteins had the excess 10 mM glutathione removed using a XK26/10 desalting column (Amersham).
Protein solutions (50 μL dilutions starting at 1.28 mg/ml) of either GST-CXCR2 fusion or wild type GST were then added, giving a total incubation volume of 200 μL per well.
A GF-B filter plate was set up containing 50 μl of 1 mg/ml gelatine in PBS in each well, which was then filtered through the plate and discarded. […] After filtering, 100 μl filtrate was transferred to a lumaplate and dried down in a 50° C. oven overnight and then counted on the TopCount instrument (Packard BioScience)

[2] = target: T2, CCR1 (Homo sapiens, UniProt P32246); assay: Chemokine receptor panel (assays similar to Example 1 and 2), CCR1; format: binding; conditions: CCR1, 10 uM
T2 sequence (P32246 1-355): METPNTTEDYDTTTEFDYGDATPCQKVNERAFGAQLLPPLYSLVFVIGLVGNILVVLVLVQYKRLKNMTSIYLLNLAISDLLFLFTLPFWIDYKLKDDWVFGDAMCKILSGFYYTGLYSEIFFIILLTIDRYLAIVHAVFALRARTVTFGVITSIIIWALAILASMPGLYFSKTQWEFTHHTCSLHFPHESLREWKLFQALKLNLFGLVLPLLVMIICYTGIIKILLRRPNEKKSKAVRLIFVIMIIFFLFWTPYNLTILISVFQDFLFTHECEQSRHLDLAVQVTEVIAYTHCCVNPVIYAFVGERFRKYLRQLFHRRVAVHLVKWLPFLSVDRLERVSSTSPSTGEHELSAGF

[3] = target: T3, CCR4 (Homo sapiens, UniProt P51679); assay: Chemokine receptor panel (assays similar to Example 1 and 2), CCR4; format: binding
T3 sequence (P51679 1-360): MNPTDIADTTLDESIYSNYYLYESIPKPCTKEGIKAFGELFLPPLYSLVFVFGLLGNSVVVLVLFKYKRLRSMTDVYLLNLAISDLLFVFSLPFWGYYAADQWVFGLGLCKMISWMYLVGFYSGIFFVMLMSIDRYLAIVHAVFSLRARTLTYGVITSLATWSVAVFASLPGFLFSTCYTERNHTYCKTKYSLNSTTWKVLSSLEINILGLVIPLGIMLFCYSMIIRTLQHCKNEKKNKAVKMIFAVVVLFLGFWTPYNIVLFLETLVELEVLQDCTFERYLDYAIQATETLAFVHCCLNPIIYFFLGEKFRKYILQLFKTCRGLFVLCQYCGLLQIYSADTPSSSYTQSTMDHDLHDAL
Protocol: (§1) Membranes (80 μL of 1×10^6 cell equivalents/mL) were then added, giving a total incubation volume of 100 μL per well. The plates were incubated for 2 hours at room temperature.
(§2) HEK 293 transfectants were seeded at 5×10^4 cells per well in 96 well poly-D lysine coated black with clear bottom plates (Becton Dickinson) and cultured for 16 h at 37° C. with an atmosphere of 5% CO2/95% air to form confluent monolayers. The following day cells were loaded with 5 μM Flura 3 AM diluted in tyrodes solution (137 mM NaCl, 10 mM HEPES, 0.441 mM KH2PO4, 2.67 mM KCl, 1.8 mM CaCL2, 1 mM MgCl2) with 6.25 mM probenecid at pH7.4, 100 μl per well and incubated at 37° C. with an atmosphere of 5% CO2/95% air for 1 h. After which the loading media was removed and the cells washed twice with PBS/HEPES solution (100 μl per well) then overlayed with 50 μl assay buffer (tyrodes buffer without probenecid). 50 μl inhibitor compound or 50 μl 0.2% (v/v) DMSO carrier diluted in assay buffer was then added per well and incubated for 30 minutes at room temperature before the addition of 50 μl 3 mM Carbachol per well. Calcium flux responses were measured using a Fluorometric Imaging Plate Reader (Molecular Devices) for 3 minutes before the addition of either IL-8 (50 μl, 1×10^−7-3×10^−11 M final concentration) or GROalpha. […] Fluorescence readings were taken every 2 seconds for a total run time of 6 minutes.

[4] = target: T4, CCR2b (Homo sapiens, UniProt P41597); assay: Chemokine receptor panel (assays similar to Example 1 and 2), CCR2b; format: binding
T4 sequence (P41597 1-360 isoform P41597-2): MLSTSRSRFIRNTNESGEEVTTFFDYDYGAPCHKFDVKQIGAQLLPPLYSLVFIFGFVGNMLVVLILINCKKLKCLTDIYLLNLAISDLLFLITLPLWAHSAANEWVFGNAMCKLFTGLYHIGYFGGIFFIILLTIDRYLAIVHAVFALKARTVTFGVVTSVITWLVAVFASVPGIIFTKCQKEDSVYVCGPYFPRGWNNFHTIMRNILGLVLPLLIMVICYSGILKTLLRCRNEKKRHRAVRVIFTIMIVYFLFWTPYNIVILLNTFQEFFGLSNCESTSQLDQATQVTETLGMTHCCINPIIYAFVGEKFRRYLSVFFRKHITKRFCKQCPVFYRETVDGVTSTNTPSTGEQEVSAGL

[5] = target: T5, CX3CR1 (Homo sapiens, UniProt P49238); assay: biochemical
T5 sequence (P49238 1-355): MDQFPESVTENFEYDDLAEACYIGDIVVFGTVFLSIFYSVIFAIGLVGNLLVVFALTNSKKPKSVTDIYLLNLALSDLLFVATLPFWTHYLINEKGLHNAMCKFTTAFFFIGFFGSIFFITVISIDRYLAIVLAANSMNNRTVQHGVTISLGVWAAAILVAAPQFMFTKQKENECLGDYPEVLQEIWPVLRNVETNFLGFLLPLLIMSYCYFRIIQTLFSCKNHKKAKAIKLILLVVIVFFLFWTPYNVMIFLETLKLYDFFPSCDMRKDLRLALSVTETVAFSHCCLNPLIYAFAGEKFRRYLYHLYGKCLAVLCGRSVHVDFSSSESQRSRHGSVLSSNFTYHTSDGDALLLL

[6] = target: CCR5 (Homo sapiens, UniProt P51681); assay: Chemokine receptor panel (assays similar to Example 1 and 2), CCR5; format: binding; conditions: CCR5, 10 uM
Protocol: as §1, §2

[7] = target: T6, CXCR1 (Homo sapiens, UniProt P25024); assay: Chemokine receptor panel (assays similar to Example 1 and 2), CXCR1; format: binding
T6 sequence (P25024 1-350): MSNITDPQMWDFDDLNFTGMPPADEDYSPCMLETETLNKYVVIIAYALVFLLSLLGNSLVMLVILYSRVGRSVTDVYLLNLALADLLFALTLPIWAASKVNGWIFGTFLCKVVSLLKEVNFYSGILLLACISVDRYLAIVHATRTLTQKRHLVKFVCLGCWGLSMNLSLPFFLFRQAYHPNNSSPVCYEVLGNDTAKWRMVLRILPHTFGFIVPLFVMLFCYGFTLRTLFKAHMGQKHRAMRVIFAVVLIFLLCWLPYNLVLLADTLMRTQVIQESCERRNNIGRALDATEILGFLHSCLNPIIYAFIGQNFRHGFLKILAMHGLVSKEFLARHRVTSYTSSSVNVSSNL
Source text: (§3) All points were reproduced in triplicate on each plate.

[8] = target: T7, wild type GST (Schistosoma japonicum, UniProt P08515); assay: [3H]Compound A radioligand binding to wild type GST control; conditions: 20 nM [3H]Compound A; FIG. 21, average of three experiments
T7 construct: made in house; host or cells: E. coli
Protocol: Protein solutions (50 μL dilutions starting at 1.28 mg/ml) of either GST-CXCR2 fusion or wild type GST were then added, giving a total incubation volume of 200 μL per well. The plates were incubated for 2 hours at room temperature.
A GF-B filter plate was set up containing 50 μl of 1 mg/ml gelatine in PBS in each well, which was then filtered through the plate and discarded. 100 μl filter mix (160 mg/ml charcoal (dextran coated) in PBS containing 1 mg/ml gelatine) was then filtered through the plate and then 150 μl assay mix was then filtered through the prepared filter plate (The charcoal catches the excess un-bound compound). After filtering, 100 μl filtrate was transferred to a lumaplate and dried down in a 50° C. oven overnight and then counted on the TopCount instrument (Packard BioScience)

[9] = target: T8, CXCR2 (Homo sapiens, UniProt P25025); assay: HEK FLIPR intracellular calcium assay, wild type CXCR2; format: cell-based; conditions: Compound A 30 nM (10 nM and 30 nM in Example 5), Compound B 100 nM
T8 construct: expressed in transfected cells
T8 sequence (P25025 1-360): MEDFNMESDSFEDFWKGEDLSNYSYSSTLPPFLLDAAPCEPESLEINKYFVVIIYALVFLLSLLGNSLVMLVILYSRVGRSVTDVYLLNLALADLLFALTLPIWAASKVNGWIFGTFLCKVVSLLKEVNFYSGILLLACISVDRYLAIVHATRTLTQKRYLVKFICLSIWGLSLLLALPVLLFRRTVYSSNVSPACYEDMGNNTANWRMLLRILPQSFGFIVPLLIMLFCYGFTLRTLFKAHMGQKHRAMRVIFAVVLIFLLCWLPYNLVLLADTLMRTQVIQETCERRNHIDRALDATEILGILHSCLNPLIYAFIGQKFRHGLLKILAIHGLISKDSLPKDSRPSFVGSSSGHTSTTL
Protocol: HEK cells, transfected with the human recombinant CXCR2 receptor, were grown to approximately 80% confluence in 225 cm^2 flasks in DMEM-Glutamax medium containing, non-essential amino acids, 10% (v/v) FCS in a humidified incubator at 37° C., 5% CO2. Cells were harvested from the flask using 10× trypsin at 37° C. for 1 to 2 minutes.
as §3

[10] = target: T9, human Chemokine receptor CXCR2 (Homo sapiens, UniProt P25025); assay: CXCR2 membrane [125I]IL-8 radioligand binding assay; conditions: FIG. 2
T9 construct: expressed in transfected cells
T9 sequence (P25025 1-360): T8 sequence (P25025 1-360)
Protocol: HEK 293 cells were transfected with CXCR2 receptor using the lipofection reagent Fugene 6 (Roche). […] Stable HEK-CXCR2 transfectants were grown to approximately 80% confluence in 10-layer cell factories in DMEM medium containing 10% (v/v) foetal calf serum and glutamine (2 mM) in a humidified incubator at 37° C., 5% CO2. Cells were harvested from the flask using Accutase at 37° C. for 3 to 5 minutes.
Cells were resuspended on ice in 60 mL hypotonic buffer at a density of 2×10^7 cells/mL. Membranes were prepared on ice by homogenisaton using a polytron tissue homogenizer set at 22000 rpm. The membrane preparation was purified by sucrose gradient centrifugation. In each of 4 centrifuge tubes 15 mL of cell membranes was layered onto 10 mL 41% (w/v) sucrose solution and the tubes centrifuged at 140000 g for 1 hour at 4° C. […]
Following incubation, the plate containing the assay mixture was filter-washed with 200 μL cold HEPES-buffered salt solution using a Millipore vacuum manifold. The filtration plate was allowed to air dry then either the individual filters were punched out into polypropylene test tubes and the radioactivity measured by direct gamma counting using a Cobra II Gamma counter (Packard BioScience) for 1 minute per sample or alternatively, the whole filtration plate was placed in a carrier plate and 50 μL of MicroScint-O added to each well. […]

[11] = target: T8, CXCR2; assay: [3H]-Compound C binding assay on CXCR2 membranes; conditions: 20 nM [3H]Compound C, FIG. 3
Protocol: Following incubation, the plate containing the assay mixture was transferred to GF-B plates and filter-washed with cold HEPES-buffered salt solution using a Tomtec harvester. The filtration plate was allowed to air dry then 20 μl of MicroScint-0 added to each well. 96-well plate scintillation counting was performed using a TopCount instrument (Packard BioScience) for 1 minute per sample well.

T1 sequence (P25025 with tags, fused parts or gaps): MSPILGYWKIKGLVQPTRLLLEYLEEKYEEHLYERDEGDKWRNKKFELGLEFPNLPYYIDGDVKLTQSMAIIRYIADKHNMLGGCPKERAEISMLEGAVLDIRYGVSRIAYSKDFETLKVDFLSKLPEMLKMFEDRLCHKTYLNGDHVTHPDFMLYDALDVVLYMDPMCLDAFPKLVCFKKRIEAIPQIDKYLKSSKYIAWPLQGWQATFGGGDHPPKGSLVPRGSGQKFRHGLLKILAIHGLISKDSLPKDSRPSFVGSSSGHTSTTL
CCR5, sequence (P51681 whole entry): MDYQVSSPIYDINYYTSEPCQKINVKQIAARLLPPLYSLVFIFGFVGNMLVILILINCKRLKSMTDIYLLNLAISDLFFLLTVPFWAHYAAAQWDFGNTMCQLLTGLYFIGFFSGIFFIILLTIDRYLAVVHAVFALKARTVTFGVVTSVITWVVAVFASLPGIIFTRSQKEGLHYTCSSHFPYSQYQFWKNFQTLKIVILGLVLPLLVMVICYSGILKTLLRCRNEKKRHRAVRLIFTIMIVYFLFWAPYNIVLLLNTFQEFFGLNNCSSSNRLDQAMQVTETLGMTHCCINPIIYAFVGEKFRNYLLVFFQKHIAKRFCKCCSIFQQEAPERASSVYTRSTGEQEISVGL
T7 sequence (P08515 whole entry): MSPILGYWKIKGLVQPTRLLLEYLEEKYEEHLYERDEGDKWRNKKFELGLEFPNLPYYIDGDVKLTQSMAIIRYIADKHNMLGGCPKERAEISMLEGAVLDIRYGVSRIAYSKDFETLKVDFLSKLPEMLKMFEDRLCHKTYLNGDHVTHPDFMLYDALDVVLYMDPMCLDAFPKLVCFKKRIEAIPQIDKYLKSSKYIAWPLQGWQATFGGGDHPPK

C[C@H](CO)Nc1nc(SCc2cccc(Cl)c2F)nc2[nH]c(=O)sc12 [Compound A]
radiolabelled binding to GST-CXCR2 fusion protein on addition of excess cold compound [1]: decrease in radiolabelled binding | inhibition at 10 µM [2]: 62% | IC50 [3]: 7940 nM | IC50 [4]: 158 nM | IC50 [5]: 251 nM | inhibition at 10 µM [6]: 72% | IC50 [7]: 251 nM | compound binding to wild type GST control protein [8]: minimal compound binding | activity (inhibition of IL-8-induced calcium release) [9]: active against CXCR2

NS(=O)(=O)c1c(Cl)ccc(NC(=O)Nc2cccc(Cl)c2Cl)c1O [Compound B]
activity (inhibition of IL-8-induced calcium release) [9]: active against CXCR2

C[C@H](CO)Nc1nc(SCc2ccccc2)nc2nc(N)sc12 [Compound C]
inhibition of [125I]-IL-8 binding [10]: able to inhibit the binding | binding to CXCR2 / displacement of radio-labelled Compound C [11]: can bind to CXCR2

IL-8: C-X-C chemokine, endogenous CXCR2/CXCR1 agonist ligand; non-radioactive IL-8 used as competitor
inhibition of [125I]-IL-8 binding [10]: able to inhibit the binding
